According to the NIST ThermoML archive (doi:10.1016/j.fluid.2015.03.009):
Where “and” joins values, the source holds several entries; their conditions need not be identical. Identical values can stand only once. ± gives the expanded uncertainty stated by the source.

Settings: Liquid, Closed cell (Static) method

Compound: CCO [ethanol]
- vapor or sublimation pressure (348.15 K): 88.59 ± 0.36 kPa and 88.58 ± 0.36 kPa
- vapor or sublimation pressure (373.15 K): 224.37 ± 0.48 kPa and 224.31 ± 0.48 kPa

Compound: CCCCCC [hexane]
- vapor or sublimation pressure (348.15 K): 123.12 ± 0.38 kPa and 123.03 ± 0.38 kPa and 122.84 ± 0.38 kPa
- vapor or sublimation pressure (373.15 K): 247.22 ± 0.55 kPa and 245.99 ± 0.55 kPa and 245.79 ± 0.55 kPa

Compound: CO [methanol]
- vapor or sublimation pressure (348.15 K): 150.71 ± 0.54 kPa and 150.69 ± 0.54 kPa and 150.67 ± 0.54 kPa
- vapor or sublimation pressure (373.15 K): 352.64 ± 0.74 kPa and 352.62 ± 0.74 kPa and 352.7 ± 0.74 kPa
